Data from patent US12053446B1, “Methods for the prevention and treatment of hearing loss using Oseltamivir” (Ting Therapeutics LLC, priority 2022, dated 2024).

Legend:
adult P42 FVB mice [1] = experiment: noise-induced hearing loss in adult mice, Oseltamivir treatment 24 hours after noise exposure; assay type: in vivo, mouse
Text: The experimental procedures for the data shown in FIGS. 2A-B are as follows: Animals were anesthetized with avertin. Subcutaneous needle electrodes were inserted behind the pinna (inverting), vertex of the skull (non-inverting) and base of the tail (ground). Tone bursts of 5 ms duration with 0.5 ms cosine-squared envelopes delivered at a rate of 21 stimuli per second with alternating polarity were generated using BioSigRZ software and RZ6 multi I/O processor system (Tucker-Davis Technologies, FL). Stimuli were presented as open field via a speaker (MF1: TDT, FL) placed 10 cm in front of the pinna of the animal. Evoked responses were amplified (20×), bandpass filtered (300-3,000 Hz) and average of 512 responses of 10 ms duration was recorded. Stimulus intensity was decreased in 5 dB increments, starting from 100 dB SPL to 0 dB SPL. Thresholds at 4, 5.6, 8, 16, 22.6, 32, 45.2, and 64 kHz were identified by visual inspection from stacked waveforms as the lowest level at which reproducible response could be identified. Before the start of every session, stimulus presenting speaker (MF1) was calibrated with a ¼″ microphone (PCB-378C10; PCB Piezotronics, NY) that was also placed 10 cm in front of the speaker. Similar experiments have been previously described in Rai V. et al., Sci Rep. 2020 Sep. 16; 10(1):15167.
Now referring to FIG. 3A, adult P42 FVB mice began treatment with Oseltamivir administered oral gavage at 100 mg/kg body weight twice daily for three days beginning 24 hours following noise exposure of 100 dB, 8-16 kHz octave band, for two hours. Now referring to FIG. 3B, auditory brainstem response (ABR) were recorded 14 days after noise exposure of 100 dB, 8-16 kHz octave band, for two hours. […] Control is shown as carrier. Statistical analysis was done with repeated measures ANOVA between groups. Mean±SEM, P=**<0.01, ***<0.001, compared to noise alone by two-way ANOVA with Bonferroni post-hoc test.
Now referring to […], amplitudes of auditory Brainstem Response wave 1 from auditory brainstem response recording of FIG. 3A. The auditory Brainstem Response wave-1 amplitude represents the summed activity of the cochlear nerve. Mean wave-1 amplitudes was measured in the control and Oseltamivir-treated mice before and after noise exposure. Amplitudes from the 90 dB SPL stimuli were compared between groups using a two-factor ANOVA (group× frequency), and difference was detected between the noise alone group to Oseltamivir plus noise. at 14 days post-noise exposure.
Now referring to FIG. 3D, Distortion Product Otoacoustic Emissions (DPOAE) threshold shifts were measured in adult FVB mice 14 days after noise exposure of 100 dB, 8-16 kHz octave band, for two hours. DPOAE audiograms provide a direct indicator of cochlear sensitivity at the level of the OHC. […] Control is shown as carrier. Statistical analysis was done with repeated measures ANOVA between groups. Mean±SEM, P=**<0.01, ***<0.001, compared to noise alone by two-way ANOVA with Bonferroni post-hoc test.
Now referring to FIG. 3F, Oseltamivir administered post-noise exposure is shown to increase number of CtBP2 puncta. Number of CtBP2 puncta per IHC at the 16 kHz cochlear region were counted, data shown as mean±SEM, P=**<0.01, ***<0.001 by one-way ANOVA with Bonferroni post-hoc test, n=6-7 cochleae. An average of 4 CtBP2 puncta per IHC are restored compared to group exposed to noise without Oseltamivir treatment.
Experimental procedure for distortion product otoacoustic emissions (DPOAE) measurements, primary tones were set to generate 2f1-f2 distortion products at frequencies between 1 and 50 kHz, DPOAEs were measured for levels of f1 ranging from 10 to 80 dB SPL, with the levels of the f2 tone set 10 dB below that of the f1 tone. Similar experiments are described in Lukashkina A. V. et al., Scientific reports, July 12; 7(1), 5185. (2017). Similar Ctpb2/MyosinVI experiments are described in Liu Z et al., PLoS One. Feb. 20, 2014; 9(2):e89377 (2014).

[2] = tested on: P3 FVB mouse cochlear explants; experiment: cisplatin-induced hair cell death in P3 FVB mouse cochlear explants; assay type: cell-based
Procedure: Now referring to FIG. 1A, a representation of the chemical structure of Oseltamivir phosphate is shown. […] The explants were treated for 24 hours. […] Percent protection for compound at the tested dosages were then plotted to show dose response curves, and IC50 were calculated.
Experimental procedures for the images shown in FIG. 1C are as follows: Mice were approved by the Institutional Animal Care and Use Committee (IACUC) at the Creighton University. Inner ears were collected from the post-natal day 3 (P3) FVB mice and transferred onto a filter (Millicell, PICM03050; Millipore) soaked in culturing medium. The filter was placed in 6-well culture plates with 1.2 mL medium outside the filter. […] Cells may be maintained in culture with the aid of Matrigel as previously described in Kelley and Driver, Curr. Protoc. Neurosci.

adult P42 FVB mice [3] = experiment: noise-induced hearing loss in adult mice, Oseltamivir pre-treatment before noise exposure; assay type: in vivo, mouse
Procedure: Now referring to FIG. 2A, adult P42 FVB mice began treatment with Oseltamivir administered oral gavage at 100 mg/kg body weight twice daily for three days once 45 minutes before exposure and then for two days after noise exposure. Now referring to FIG. 2B, auditory brainstem response (ABR) were recorded 14 days after noise exposure of 100 dB, 8-16 kHz octave band, for two hours. […] Control is shown as carrier. Statistical analysis was done with repeated measures ANOVA between groups. Mean±SEM, P=**<0.01, ***<0.001, compared to noise alone by two-way ANOVA with Bonferroni post-hoc test.
The experimental procedures for the data shown in FIGS. 2A-B are as follows: Animals were anesthetized with avertin. Subcutaneous needle electrodes were inserted behind the pinna (inverting), vertex of the skull (non-inverting) and base of the tail (ground). Tone bursts of 5 ms duration with 0.5 ms cosine-squared envelopes delivered at a rate of 21 stimuli per second with alternating polarity were generated using BioSigRZ software and RZ6 multi I/O processor system (Tucker-Davis Technologies, FL). Stimuli were presented as open field via a speaker (MF1: TDT, FL) placed 10 cm in front of the pinna of the animal. Evoked responses were amplified (20×), bandpass filtered (300-3,000 Hz) and average of 512 responses of 10 ms duration was recorded. […]

[4] = tested on: inner ear cell line HEI-OC1; experiment: high-throughput screen of FDA-approved drugs for cisplatin-induced cell-death protection; assay type: cell-based; conditions: 1,300 FDA-approved drugs screened
Text: Oseltamivir is an oral widely used anti-viral drug. Significant protection by Oseltamivir against hearing loss is shown herein in doses equivalent to those approved for human use.

[5] = tested on: adult 12 weeks old CBA/CaJ mice; experiment: cisplatin-induced hearing loss in adult mice, multi-dose cisplatin regimen; assay type: in vivo, mouse
Procedure: Now referring to FIG. 4B, mice exposed to multi-dose cisplatin treatments show reduced reduction in wave 1 amplitude 16 kHz recording form 30-90 dB SPL, and Oseltamivir treatment at the dose of 50 mg/kg increased the 16-kHz wave-1 amplitude at 90 SPL.
Now referring to FIG. 4C, Oseltamivir (10 mg/kg and 50 mg/kg doses) increased the percent of total mice surviving 40 days after beginning of cisplatin exposure. Auditory Brainstem Response threshold shifts recorded as previously described. Similar wave-1 amplitude recordings have been described Hazlitt J et al., Med. Chem. 61, 7700-7709 (2018); Teitz et al., J. Exp. Med. 215, 1187-1203 (2018).
Now referring to FIG. 5A, confocal images of myosin-VI stained basal, middle, apical turn cochlear regions show outer hair cells of mice exposed to treatment of 50 mg/kg Oseltamivir alone or exposed to cisplatin with or without treatment of 10 or 50 mg/kg Oseltamivir. Now referring to FIG. 5B, count of outer hair cells per 160 μm for cochlear regions. Mean±SEM, P=*<0.05, **<0.01, compared to noise alone by two-way ANOVA with Bonferroni post-hoc test. N=5 cochleae counted per bar. Similar Myosin VI experiments are described in Liu Z et al., PLoS One. Feb. 20, 2014; 9(2):e89377 (2014).

CCOC(=O)C1=C[C@@H](OC(CC)CC)[C@H](NC(C)=O)[C@@H](N)C1 [Oseltamivir, oseltamivir phosphate] was tested, and the “ABR threshold shift vs noise-exposed control” value (adult P42 FVB mice [1]; 100 mg/kg oral twice daily, three days, beginning 24 hours after noise, 14 days after noise) was “Significant protection against hearing loss”, the “loss of CtBP2-puncta in inner hair cells vs noise alone” value (adult P42 FVB mice [1]; 16 kHz cochlear region) was “partially restores” and the “CtBP2 puncta per IHC restored vs noise without Oseltamivir” value (adult P42 FVB mice [1]; 16 kHz cochlear region, post-noise administration, average) was 4. The “ABR wave-1 amplitude vs noise exposure only group” value (adult P42 FVB mice [1]; 16 kHz, 90 dB SPL, 14 days post-noise exposure) was “higher amplitudes”, the “DPOAE threshold shift vs noise-exposed control” value (adult P42 FVB mice [1]; 14 days after noise exposure of 100 dB, 8-16 kHz, two hours) was “Significant protection against hearing loss” and the “protection, auditory Brainstem Response and DPOAE measurements” value (adult P42 FVB mice [1]; oral, 45 minutes before noise exposure and 24 hours after noise exposure, three consecutive days) was 20-28 dB. For the same compound, the “protection against noise-induced hearing loss (ABR threshold shift)” value (adult P42 FVB mice [1]; treatment 24 hours after noise exposure, 100, 50 and 10 mg/kg, 8, 16, 32 kHz) was “protects”, the “protection against cisplatin induced hair cell loss, phalloidin-stained middle turn images” value ([2]; 3 μM Oseltamivir and 150 μM Cisplatin) was “shows protection” and the IC50 ([2]; Mus musculus, Oseltamivir added 1 h before cisplatin (150 μM), 24 h, read-out: IC50 (percent protection from cisplatin-induced hair cell death)) was 450 nM. The LD50 ([2]; Oseltamivir alone, cochlear explants, 24 h) was over 100 µM, the “protection, auditory brainstem response measurements” value (adult P42 FVB mice [3]; 100 mg/kg oral gavage twice daily for three days, first dose 45 minutes before noise (100 dB, 8-16 kHz, two hours), ABR 14 days after noise) was 24-28 dB and the “ABR threshold shift vs noise-exposed control” value (adult P42 FVB mice [3]; 100 mg/kg oral twice daily, three days, starting 45 minutes before noise, 14 days after noise) was “Significant protection against hearing loss”. For the same compound, the “hit in screen for cisplatin-induced cell-death protection” value [4] was “one of the best hits”, the “16-kHz wave-1 amplitude” value ([5]; 50 mg/kg Oseltamivir, 90 SPL, multi-dose cisplatin) was “increased” and the “auditory brainstem response threshold shift vs cisplatin without treatment” value ([5]; 8, 16, and 32 kHz, 10 and 50 mg/kg Oseltamivir oral twice-daily, cisplatin 3 mg/kg IP, 3 cycles) was “lower”. For the same compound, the “percent of total mice surviving” value ([5]; 40 days after beginning of cisplatin exposure, 10 mg/kg and 50 mg/kg) was “increased” and the “outer hair cells, Myosin VI stained basal, middle, apical cochlear regions” value ([5]; multi-dose cisplatin regimen, 10 or 50 mg/kg Oseltamivir) was “preserved outer hair cells in all regions”.
